In PubChem BioAssay (NCI):
“And” between values parts separate entries of the source, which are not always exact repeats. Identical values can stand only once.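 Following 48 hours of exposure in 96-well plates, responses at five concentrations were used to interpolate endpoints linearly. GI50: concentration for 50% inhibition of growth. The concentration for full growth arrest is given as TGI.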 Where a SMILES comes first, the peptide text is derived from it. The star is where a group is joined. Palmitoyl = CCCCCCCCCCCCCCCC(=O)*

Legend:
Assay in all cases: inhibition of tumour cell growth, NCI panel, 48 h
UO-31 renal = system: UO-31 renal
UACC-62 melanoma = system: UACC-62 melanoma
A549 NSCLC = system: A549 NSCLC
HCT-116 colon = system: HCT-116 colon
MCF7 breast = system: MCF7 breast
HCT-15 colon = system: HCT-15 colon
786-0 renal = system: 786-0 renal
SNB-19 CNS = system: SNB-19 CNS
NCI-H23 lung = system: NCI-H23 lung
HOP-62 NSCLC = system: HOP-62 NSCLC

Structure (SMILES)	TGI (UO-31 renal)	TGI (UACC-62 melanoma)	TGI (A549 NSCLC)	TGI (HCT-116 colon)	TGI (MCF7 breast)	TGI (HCT-15 colon)	TGI (786-0 renal)	TGI (SNB-19 CNS)	TGI (NCI-H23 lung)	GI50 (UO-31 renal)	GI50 (A549 NSCLC)	GI50 (HCT-116 colon)	GI50 (MCF7 breast)	GI50 (SNB-19 CNS)	GI50 (HOP-62 NSCLC)	TGI (HOP-62 NSCLC)	GI50 (NCI-H23 lung)	GI50 (HCT-15 colon)	GI50 (UACC-62 melanoma)
CC(=O)Nc1ncc2c(n1)-c1ccccc1OC2	> 100 µM	> 100 µM	> 100 µM	> 100 µM	> 100 µM	> 100 µM	> 100 µM	> 100 µM	> 100 µM	–	–	–	–	–	–	–	–	–	–
CCCCCCCCCCCCCCCC(=O)NC(CCCCN)C(=O)NCC(=O)NC(Cc1ccccc1)C(=O)N1CCCC1C(=O)NC(CO)C(=O)NC(Cc1ccc(O)cc1)C(=O)NC(CCCCN)C(=O)NC(CC(C)C)C(=O)NC(CCCN=C(N)N)C(=O)N1CCCC1C(=O)NCC(N)=O (configuration not stated) (Palmitoyl-KGFPSYKLRPG-NH2; configuration not given here)	49.9 µM	–	44.4 µM	31.8 µM	44 µM	–	–	54.9 µM	55.6 µM	20.2 µM	19.5 µM	15.3 µM	21.1 µM	26.6 µM	24.4 µM	53.6 µM	23.9 µM	–	–
Cc1cccc(N2CCN(S(=O)(=O)c3ccc(Cl)cc3)C2=N)c1C	> 100 µM	> 100 µM	> 100 µM	> 100 µM	> 100 µM	–	> 100 µM	> 100 µM	> 100 µM	–	–	–	–	–	–	–	–	–	–
C=C1C(=O)C[C@@]23CCC[C@@]12CC(O)C3 (some centres not stated)	> 94.6 µM	30.9 µM	> 100 µM	44.5 µM	33.6 µM	28.8 µM	–	> 100 µM	53.8 µM	–	–	–	–	–	–	> 100 µM	–	–	–
Cc1cnc2[nH]c(-c3ccccc3)cc(=O)c2c1	68 µM	–	> 100 µM	> 100 µM	> 100 µM	1.41 µM	> 100 µM	> 100 µM	> 13.5 µM	–	–	–	–	–	–	> 100 µM	–	–	–
COc1ccc(CC2C(=O)NC(C)C(=O)N(C)C3Cc4ccc(cc4)Oc4cc(ccc4O)CC(C(=O)NC(C)C(=O)NC(C)C(=O)N2C)N(C)C3=O)cc1 (configuration not stated)	5.75 µM and 4.16 µM	0.161 µM and 0.0223 µM	0.193 µM and 0.599 µM and 0.306 µM	0.112 µM and 0.0554 µM	–	14.9 µM	–	–	0.0293 µM and 0.0212 µM and 0.158 µM	0.24 µM	–	< 0.0001 µM	< 0.0001 µM	< 0.0001 µM	0.00218 µM	–	< 0.0001 µM	1.27 µM	–
COC(=O)C1(Cc2ccccc2)Cc2ccccc2C1=O (configuration not stated)	> 100 µM	> 100 µM	> 100 µM	> 100 µM	> 100 µM	> 100 µM	> 100 µM	–	> 100 µM	–	–	–	–	–	–	> 100 µM	–	–	–
NC(CO)c1ccccc1 (configuration not stated)	> 100 µM	> 100 µM	> 100 µM	> 100 µM	–	> 100 µM	–	> 100 µM	–	–	–	–	–	–	–	> 100 µM	–	–	–
COC1(OC)/C(=C(\N)C=O)NC(C)(C)N1O	> 100 µM	> 100 µM	> 100 µM	> 100 µM	> 100 µM	–	> 100 µM	> 100 µM	> 100 µM	–	–	–	–	–	–	> 100 µM	–	–	–
CC1=CC(c2ccccc2)n2c(nc3cc4ccccc4cc32)N1 (configuration not stated)	> 100 µM	> 100 µM	> 100 µM	> 100 µM	> 100 µM	> 100 µM	> 100 µM	> 100 µM	> 100 µM	–	–	–	–	–	–	–	–	–	–
O=C1O/C(=C\c2ccc(O)cc2)C(c2ccc(O)c(Cl)c2)=C1Br	36.4 µM	28.9 µM	–	23.6 µM	37.1 µM	26.7 µM	31.6 µM	62.7 µM	59.2 µM	–	–	–	–	–	–	35.3 µM	–	–	–
COc1ccccc1OC/C(N=Cc1ccncc1)=N/NC(=O)c1ccncc1	–	> 100 µM	> 100 µM	> 100 µM	> 100 µM	> 100 µM	> 100 µM	> 100 µM	> 100 µM	–	–	–	–	–	–	> 100 µM	–	–	–
CC(=O)c1c(O)c(C)c(O)c2c1OC1=CC(=O)C(C(C)=O)C(=O)C12C (configuration not stated)	7.08 µM and 53.6 µM	20.1 µM and 26.4 µM	25.1 µM and 48.4 µM	45.7 µM and 66.3 µM	24.7 µM and 26 µM	27.6 µM and 60.4 µM	–	18.2 µM and 44.5 µM	26.6 µM and 49.6 µM	1.96 µM and 18.2 µM	3.77 µM and 13.8 µM	10.9 µM and 22.3 µM	5.75 µM and 12 µM	4.26 µM and 12.4 µM	3.66 µM and 20.1 µM	12.2 µM and 46.1 µM	6.72 µM and 18.7 µM	5.23 µM and 16.6 µM	4.86 µM and 12.7 µM
C=CCN1C(=O)/C(=C/c2ccc(Cl)cc2)N=C1SC1OC(COC(C)=O)C(OC(C)=O)C(OC(C)=O)C1OC(C)=O (configuration not stated)	–	35.7 µM and > 100 µM	65.7 µM	87.5 µM	> 100 µM	> 100 µM	12.6 µM	87.6 µM	> 100 µM and 76.2 µM	–	–	–	–	–	5.66 µM and 21.9 µM	20.6 µM and 62.6 µM	–	41.1 µM and 16 µM	10.4 µM and 21.5 µM
CCN(CC)c1ccc(C(=C2C=CC(=[N+](CC)CC)C=C2)c2ccccc2)cc1	0.185 µM	0.231 µM	–	0.127 µM	–	0.587 µM	0.151 µM	0.179 µM	0.0929 µM	–	–	–	–	–	–	0.491 µM	–	–	–
C[C@@H](C[C@@H](O)[C@H](O)C(C)(C)O)[C@H]1CC=C2[C@]3(C)[C@H](O)C[C@H]4C(C)(C)[C@H](O)CC[C@]4(C)[C@H]3CC[C@@]21C	28.7 µM	–	26.4 µM	34.7 µM	36.7 µM	36.1 µM	28.2 µM	32.7 µM	33.6 µM	–	–	–	–	–	–	28.5 µM	–	–	–
Cc1ccc(C2=Nn3c(nc4sc(-c5ccccc5)cc4c3=O)SC2)cc1	> 100 µM	> 100 µM	> 100 µM	> 100 µM	> 100 µM	> 100 µM	> 100 µM	–	> 100 µM	–	–	–	–	–	–	> 100 µM	–	–	–
C/C(=N\O)c1ccc(Nc2c3ccccc3nc3occc23)cc1	> 50 µM	16.6 µM	> 11.9 µM	2.52 µM	–	4.07 µM	3.3 µM	> 50 µM	> 10.8 µM	–	–	–	–	–	–	> 24.1 µM	–	–	–
BrCC[P+](c1ccccc1)(c1ccccc1)c1ccccc1	22.8 µM	21.9 µM	> 100 µM	8.38 µM	30.5 µM	> 100 µM	10.4 µM	62.1 µM	–	–	–	–	–	–	–	20.2 µM	–	–	–
C=C1C(=O)O[C@H]2C(=O)[C@H](C)CCC[C@@](C)(O)/C=C\C[C@@]3(C)O[C@@H]3C[C@@H]12	27.6 µM	37.8 µM	38.6 µM	20.2 µM	37.5 µM	25.9 µM	25 µM	> 100 µM	68.8 µM	–	–	–	–	–	–	–	–	–	–
